Test results reported in PMC7785372, “An UPLC-MS/MS Method for Determination of Osimertinib in Rat Plasma: Application to Investigating the Effect of Ginsenoside Rg3 on the Pharmacokinetics of Osimertinib” (International Journal of Analytical Chemistry, 2020).
Like-named read-outs stand apart in the source and are kept apart here.

Legend:
[1] = test system: BCRP; parameters: method as in PMID 31371986; conditions: in vitro; cited from earlier work
[2] = test system: P-gp; parameters: method as in PMID 31371986; conditions: in vitro; cited from earlier work
[3] = parameters: method as in PMID 29381826; conditions: patients with advanced NSCLC, cited from earlier work
[4] = Stability of osimertinib in rat plasma under various storage conditions (QC samples, UPLC-MS/MS); assay type: physicochemical; conditions: for Autosampler stability, RE / Autosampler stability, measured concentration Mean ± SD: processed rat plasma sample, 4°C for 24 h; for Autosampler stability, RE / Autosampler stability, measured concentration Mean ± SD / Short-term stability, RE / Short-term stability, measured concentration Mean ± SD / Freeze-thawing stability, RE / Freeze-thawing stability, measured concentration Mean ± SD / Long-term stability, RE / Long-term stability, measured concentration Mean ± SD: n = 6; for Short-term stability, RE / Short-term stability, measured concentration Mean ± SD: room temperature for 6 h; for Freeze-thawing stability, RE / Freeze-thawing stability, measured concentration Mean ± SD: −80°C for 3 cycles
Description: (1) Short-Term Stability. QC samples (low, medium, and high levels) were assessed by analyzing QC samples kept at room temperature for six hours.
(2) Autosampler Stability. QC samples (low, medium, and high levels) were evaluated after the processed QC samples were placed in an autosampler (4°C) for 24 hours.
(3) Freeze-Thaw Stability. QC samples (low, medium, and high levels) were investigated after storage at room temperature for 8 h, followed by three freeze-thaw cycles (thawing at room temperature during 2 h and freezing again at −80°C for at least 12 h).
(4) Long-Term Stability. QC samples (low, medium, and high levels) were determined by analyzing after storage at −80°C for 28 days.

[5] = Pharmacokinetic study of osimertinib in rats after oral administration, with or without ginsenoside Rg3 pretreatment; assay type: in vivo, Male Sprague-Dawley rats
Description: The rats were randomly divided into two groups (six rats for each group). Osimertinib was dissolved and suspended by 1% carboxymethylcellulose sodium solution. The Rg3 powder in Shenyi capsule was dissolved in saline. In the first period, ginsenoside Rg3 (5 mg/kg) was orally administered to the rats in group I for seven days, and the rats in the other group were orally treated with normal saline for seven days. In the second period, the rats were fasted overnight with free access to water before the experiment. After overnight fasting, ginsenoside Rg3 (5 mg/kg) plus osimertinib (10 mg/kg) was orally administered to the rats in group I, and the rats received oral ginsenoside Rg3 30 min prior to osimertinib at the eighth day. Rats in group II were only orally treated with osimertinib (10 mg/kg) at the eighth day. Blood samples (each 100 μL) were collected via the oculi chorioideae vein at 0.5, 1, 2, 3, 4, 5, 6, 7, 8, 10, 12, 15, and 24 h after treatment in heparinized tubes. The blood samples were immediately centrifuged at 3000 rpm for 10 min. The plasma was separated from blood samples and transferred to clean tubes and immediately stored at −80°C until further analysis. The plasma concentrations of osimertinib were determined according to the aforementioned developed UPLC-MS/MS method.
The pharmacokinetic parameters, including the maximal plasma concentration (Cmax), area under the plasma concentration-time curve (AUC), time for the maximal plasma concentration (Tmax), and mean residence time (MRT), were calculated through noncompartmental analysis by Phoenix WinNonlin (Pharsight Inc., USA, version 1.1) software.

[6] = parameters: method as in PMID 31371986; conditions: rats; cited from earlier work
[7] = test system: cytochrome P450 (CYP3A); parameters: method as in PMID 31371986; conditions: preclinical studies; cited from earlier work
[8] = rat plasma, spiked 3 ng/mL, −80°C for 28 days
[9] = rat plasma, spiked 30 ng/mL, −80°C for 28 days
[10] = rat plasma, spiked 350 ng/mL, −80°C for 28 days
[11] = male, Sprague-Dawley, rat, in vivo, po, 10 mg/kg

## C=CC(=O)Nc1cc(Nc2nccc(-c3cn(C)c4ccccc34)n2)c(OC)cc1N(C)CCN(C)C [Osimertinib]
[1]
  Substrate of BCRP: substrate
[2]
  Substrate of P-gp: substrate
[3]; coadministered with itraconazole (strong CYP3A4 inhibitor)
  Increase of exposure (AUC): 24%
[3]; coadministered with rifampicin (CYP3A4 inducer)
  Decrease of exposure (AUC): 78%
[4]; spiked 3 ng/mL
  Autosampler stability, RE: 0.6%
  Autosampler stability, measured concentration Mean ± SD: 3.02 ± 0.01 ng/mL
[4]; spiked 30 ng/mL
  Autosampler stability, RE: −4.2%
  Autosampler stability, measured concentration Mean ± SD: 28.7 ± 0.8 ng/mL
[4]; spiked 350 ng/mL
  Autosampler stability, RE: 2.5%
  Autosampler stability, measured concentration Mean ± SD: 359 ± 26 ng/mL
[4]; rat plasma, spiked 3 ng/mL
  Short-term stability, RE: 6.8%
  Short-term stability, measured concentration Mean ± SD: 3.20 ± 0.14 ng/mL
  Freeze-thawing stability, RE: 1.0%
  Freeze-thawing stability, measured concentration Mean ± SD: 3.03 ± 0.02 ng/mL
[4]; [8]
  Long-term stability, RE: −1.5%
  Long-term stability, measured concentration Mean ± SD: 2.96 ± 0.24 ng/mL
[4]; rat plasma, spiked 30 ng/mL
  Short-term stability, RE: 0.4%
  Short-term stability, measured concentration Mean ± SD: 30.1 ± 1.0 ng/mL
  Freeze-thawing stability, RE: 0.4%
  Freeze-thawing stability, measured concentration Mean ± SD: 30.1 ± 1.0 ng/mL
[4]; [9]
  Long-term stability, RE: 9.1%
  Long-term stability, measured concentration Mean ± SD: 32.7 ± 0.8 ng/mL
[4]; rat plasma, spiked 350 ng/mL
  Short-term stability, RE: −2.7%
  Short-term stability, measured concentration Mean ± SD: 341 ± 3 ng/mL
  Freeze-thawing stability, RE: −0.3%
  Freeze-thawing stability, measured concentration Mean ± SD: 349 ± 6 ng/mL
[4]; [10]
  Long-term stability, RE: 2.4%
  Long-term stability, measured concentration Mean ± SD: 359 ± 7 ng/mL
[4]; rat plasma, three QC concentrations, room temperature 6 h, autosampler 24 h, three freeze-thaw cycles (−80°C), −80°C for 28 days, all within ±15% of nominal
  Stability under the conditions investigated: stable
[5]; [11]
  AUC0-t: 2.82 ± 1.20 µg·h/mL
  CL/F: 19.8 ± 8.1 L/h/kg
  Vz/F: 130 ± 58 L/kg
  half-life: 268 ± 56.4 min
[5]; male, Sprague-Dawley, rat, in vivo, po, 10 mg/kg, AUC0-t
  AUC0-t: 2.82 ± 1.21 µg·h/mL
[5]; male, Sprague-Dawley, rat, in vivo, po, 10 mg/kg, AUC0-∞
  AUC(0-inf): 2900 ± 1210 ng·h/mL
[5]; male, Sprague-Dawley, rat, in vivo, po, 10 mg/kg, C max
  Cmax: 317 ± 138 ng/mL
[5]; male, Sprague-Dawley, rat, in vivo, po, 10 mg/kg, CL/F
  CL/F: 19.8 L/h/kg
[5]; male, Sprague-Dawley, rat, in vivo, po, 10 mg/kg, MRT0-t
  MRT last: 6.88 ± 0.62 h
[5]; male, Sprague-Dawley, rat, in vivo, po, 10 mg/kg, T max
  Tmax: 3.33 ± 0.82 h
[5]; male, Sprague-Dawley, rat, in vivo, po, 10 mg/kg, Vz/F
  Vd/F: 130 ± 58.1 L/kg
[6]
  MRT: 14.51 h
  Tmax: about 4.48 h
  t1/2: 14.96 h
[7]
  Metabolizing enzyme: principally metabolized by cytochrome P450 (CYP3A)

## CC(C)=CCC[C@](C)(O)[C@H]1CC[C@]2(C)[C@@H]1[C@H](O)C[C@@H]1[C@@]3(C)CC[C@H](O[C@@H]4O[C@H](CO)[C@@H](O)[C@H](O)[C@H]4O[C@@H]4O[C@H](CO)[C@@H](O)[C@H](O)[C@H]4O)C(C)(C)[C@@H]3CC[C@]12C [Rg3, Ginsenoside Rg3]
[5]; Rg3 5 mg/kg oral for seven days, coadministered with osimertinib 10 mg/kg oral, rats
  Effect on the main pharmacokinetic parameters of osimertinib: no significant effect
